According to paper PMC6272861, “In Vitro Inhibition of Human UDP-Glucuronosyl-Transferase (UGT) Isoforms by Astaxanthin, β-Cryptoxanthin, Canthaxanthin, Lutein, and Zeaxanthin: Prediction of in Vivo Dietary Supplement-Drug Interactions” (Molecules, 2016):
One block for each compound: values may come before it.

Columns and labels:
UGT1A3 = target: T1, UGT1A3 (Homo sapiens, UniProt P35503)
T1 sequence (P35503 29-534): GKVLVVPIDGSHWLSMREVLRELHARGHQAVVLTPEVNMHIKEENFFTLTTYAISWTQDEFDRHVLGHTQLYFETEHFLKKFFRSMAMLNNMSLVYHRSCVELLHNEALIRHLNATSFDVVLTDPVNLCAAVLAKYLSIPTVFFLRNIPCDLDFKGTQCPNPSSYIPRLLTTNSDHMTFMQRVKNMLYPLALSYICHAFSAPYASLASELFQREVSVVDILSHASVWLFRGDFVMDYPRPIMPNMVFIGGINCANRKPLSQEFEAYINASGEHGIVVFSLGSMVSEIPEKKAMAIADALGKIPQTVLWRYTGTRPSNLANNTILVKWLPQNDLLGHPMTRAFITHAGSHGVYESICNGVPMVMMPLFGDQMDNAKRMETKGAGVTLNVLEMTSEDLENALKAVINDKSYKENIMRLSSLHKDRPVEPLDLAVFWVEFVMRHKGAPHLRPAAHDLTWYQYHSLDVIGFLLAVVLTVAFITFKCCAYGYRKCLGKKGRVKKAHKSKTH
Protocol: (§2) The formation activities of β-estradiol-3-glucuronide, chenodeoxycholic acid 24-acyl-β-D-glucuronide, trifluoperazine-N-glucuronide, imipramine-N-β-D-glucuronide, serotonin-O-glucuronide, propofol-O-glucuronide, and zidovudine-5′-glucuronide were determined to probe the activities of UGT1A1, UGT1A3, UGT1A4, UGT1A6, UGT1A9 and UGT2B7, respectively, in human liver microsomes.
(§3) In brief, the 90-µL incubation mixture, including pooled human liver microsomes (final concentration 0.25 mg/mL), 100 mM Tris buffer, 25 µg/mL alamethicin, 5 mM MgCl2, the UGT-selective substrates, and five xanthophylls (0–50 μM), were pre-incubated for 30 min on ice to allow formation of alamethicin pores. Reac2345tions were initiated by the addition of 10 μL of UDPGA (5 mM) to a final reaction volume of 0.1 mL and incubated at 37 °C for 60 min (except 30 min for UGT1A9) in a shaking water bath. After incubation, each reaction was stopped by adding 50 μL of ice-cold acetonitrile containing chlorpropamide (300 ng/mL) or theophylline (30 μg/mL or 300 μg/mL) as an internal standard. The mixtures were then centrifuged (13,000 g for 15 min at 4 °C) and 5-µL aliquots of the supernatants were injected into an LC-MS/MS system. […] All incubations were performed in triplicate, and mean values were used for analysis.
(§4) Chromatographic separations were performed on an Agilent Poroshell 120 EC-C18 column (50 mm × 4.6-mm i.d.; 2.7-μm particle size; Agilent Technologies) to quantify β-estradiol-3-glucuronide (UGT1A1), chenodeoxycholic acid 24-acyl-β-D-glucuronide (UGT1A3), trifluoperazine-N-glucuronide (UGT1A4), propofol-O-glucuronide (UGT1A9), zidovudine-5′-glucuronide (UGT2B7), and 4-methylumbelliferyl glucuronide (UGT2B15); an Agilent Poroshell 120 EC-C18 column (100 × 4.6-mm i.d.; 2.7-mm particle size) was used for quantification of serotonin-O-glucuronide (UGT1A6). The isocratic mobile phase consisted of distilled water (A) and acetonitrile containing 0.1% formic acid (B) at a ratio (v/v) of 10:90 for chenodeoxycholic acid 24-acyl-β-D-glucuronide, 30:70 for trifluoperazine-N-glucuronide and zidovudine-5′-glucuronide, 50:50 for propofol-O-glucuronide and 4-methylumbelliferyl glucuronide, 65:35 for β-estradiol-3-glucuronide, and 90:10 for serotonin-O-glucuronide, at a flow rate of 0.5 mL/min. The total run time was 4.0 min per sample for each metabolite, with the exception of serotonin-O-glucuronide (6.0 min). Peak areas for all of the analytes were automatically integrated using Analyst software (version 1.5.2, Applied Biosystems, Foster City, CA, USA).
(§5) The IC50 values were calculated via nonlinear least-squares regression analysis from plots of the logarithms of inhibitor concentration vs. the residual percentages of activities after inhibition, using WinNonlin (ver. 4.0; Pharsight, Mountain View, CA, USA).

UGT1A9 = target: T2, UGT1A9 (Homo sapiens, UniProt O60656); experiment: Inhibition of UGT1A9 (propofol-O-glucuronidation) in human liver microsomes
T2 sequence (O60656 26-530): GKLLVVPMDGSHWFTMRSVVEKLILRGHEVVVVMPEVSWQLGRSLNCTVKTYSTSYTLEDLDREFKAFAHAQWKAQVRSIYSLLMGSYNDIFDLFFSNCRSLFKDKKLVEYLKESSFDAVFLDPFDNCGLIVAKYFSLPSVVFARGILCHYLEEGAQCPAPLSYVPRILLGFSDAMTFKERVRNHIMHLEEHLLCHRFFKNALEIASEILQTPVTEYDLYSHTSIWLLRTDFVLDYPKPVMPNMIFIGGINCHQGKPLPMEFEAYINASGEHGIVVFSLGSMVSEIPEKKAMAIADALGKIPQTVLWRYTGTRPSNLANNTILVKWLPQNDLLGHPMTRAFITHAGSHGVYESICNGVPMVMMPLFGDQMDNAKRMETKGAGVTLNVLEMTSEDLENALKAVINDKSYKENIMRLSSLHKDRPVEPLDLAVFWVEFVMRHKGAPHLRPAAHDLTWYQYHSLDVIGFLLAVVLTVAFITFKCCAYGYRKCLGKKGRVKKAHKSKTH
Protocol: as §2, §3, §4, §5

UGT1A1 = target: T3, UGT1A1 (Homo sapiens, UniProt P22309); experiment: Ki determination on UGT1A1 activity (β-estradiol-3-glucuronidation) in human liver microsomes; settings: Dixon plots / nonlinear regression
T3 sequence (P22309 26-533): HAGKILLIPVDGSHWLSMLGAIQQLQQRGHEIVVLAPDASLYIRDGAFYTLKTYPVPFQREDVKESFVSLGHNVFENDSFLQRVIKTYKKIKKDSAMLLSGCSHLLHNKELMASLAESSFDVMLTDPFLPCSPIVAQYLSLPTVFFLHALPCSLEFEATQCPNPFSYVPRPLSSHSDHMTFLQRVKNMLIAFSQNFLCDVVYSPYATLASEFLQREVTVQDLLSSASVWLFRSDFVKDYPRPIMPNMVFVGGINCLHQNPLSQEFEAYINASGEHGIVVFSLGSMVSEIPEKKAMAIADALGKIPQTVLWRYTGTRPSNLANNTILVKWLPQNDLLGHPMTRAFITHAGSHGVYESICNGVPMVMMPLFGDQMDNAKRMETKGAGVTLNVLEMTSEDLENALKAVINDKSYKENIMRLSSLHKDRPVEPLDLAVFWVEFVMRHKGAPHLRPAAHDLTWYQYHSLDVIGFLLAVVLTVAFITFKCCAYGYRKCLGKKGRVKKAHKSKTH
Protocol: Based on the lowest IC50 value, the inhibitor constant (Ki) values of the βC for UGT1A1 were determined. […] All incubations were performed in triplicate, and the mean values were used for the analysis. Other procedures were similar to those of the reversible inhibition studies.
(§1) For visual inspection, data were presented as Dixon plots.

UGT1A4 = target: T4, UGT1A4 (Homo sapiens, UniProt P22310); experiment: Inhibition of UGT1A4 (trifluoperazine-N-glucuronidation) in human liver microsomes; assay type: in vitro ADME; settings: 4 μM trifluoperazine, mean ± SD of triplicate, read-out: IC50 towards UGT1A4
T4 construct: pooled human liver microsomes (final concentration 0.25 mg/mL); tissue Corning Life Sciences; host or cells: pooled human liver microsomes, 150 donors
T4 sequence (P22310 29-534): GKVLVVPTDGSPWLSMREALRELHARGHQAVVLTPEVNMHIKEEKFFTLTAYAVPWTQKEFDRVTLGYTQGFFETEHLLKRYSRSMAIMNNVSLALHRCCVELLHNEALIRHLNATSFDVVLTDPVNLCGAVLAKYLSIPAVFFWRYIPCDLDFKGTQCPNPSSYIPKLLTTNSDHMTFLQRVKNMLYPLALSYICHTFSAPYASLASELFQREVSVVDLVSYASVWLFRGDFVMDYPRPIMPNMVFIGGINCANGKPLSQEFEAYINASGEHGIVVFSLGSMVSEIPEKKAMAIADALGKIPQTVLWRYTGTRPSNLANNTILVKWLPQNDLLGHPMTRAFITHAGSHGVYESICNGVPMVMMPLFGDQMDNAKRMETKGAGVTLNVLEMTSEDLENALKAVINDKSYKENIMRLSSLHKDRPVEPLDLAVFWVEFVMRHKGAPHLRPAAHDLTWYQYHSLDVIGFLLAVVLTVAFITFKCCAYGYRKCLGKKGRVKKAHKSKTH
Protocol: as §2, §3, §4, §5

UGT2B15 = target: T5, UGT2B15 (Homo sapiens, UniProt P54855); experiment: Inhibition of UGT2B15 (4-methylumbelliferyl glucuronidation) in recombinant human UGT2B15 supersomes; assay type: in vitro ADME; settings: recombinant UGT2B15 supersomes, 250 μM 4-methylumbelliferone, mean ± SD of triplicate; read-out: IC50 towards UGT2B15
T5 construct: purchased Corning Life Sciences
T5 sequence (P54855 24-530): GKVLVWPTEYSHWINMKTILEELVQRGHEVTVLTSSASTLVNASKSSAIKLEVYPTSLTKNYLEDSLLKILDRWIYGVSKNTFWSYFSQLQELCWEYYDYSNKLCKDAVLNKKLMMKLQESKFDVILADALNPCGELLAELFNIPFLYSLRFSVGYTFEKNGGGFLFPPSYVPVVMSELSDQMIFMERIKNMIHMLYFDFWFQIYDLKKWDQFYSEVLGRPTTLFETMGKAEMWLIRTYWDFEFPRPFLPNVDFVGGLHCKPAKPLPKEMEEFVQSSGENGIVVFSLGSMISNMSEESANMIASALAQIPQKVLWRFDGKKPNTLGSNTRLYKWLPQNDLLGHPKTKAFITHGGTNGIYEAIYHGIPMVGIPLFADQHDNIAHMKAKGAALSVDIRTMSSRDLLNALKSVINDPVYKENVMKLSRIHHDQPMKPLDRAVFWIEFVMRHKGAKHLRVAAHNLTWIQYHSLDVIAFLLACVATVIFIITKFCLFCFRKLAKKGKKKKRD
Protocol: Although S-oxazepam is a typical substrate of UGT2B15 of human liver microsomes, authentic S-oxazepam and the corresponding glucuronide are not commercially […]. Thus, the inhibition of AS, βC, CA, LU, and ZE on the UGT2B15 activity was assessed using 4-methylumbelliferone as the nonspecific probe substrate for all UGTs except UGT1A4 [34] in recombinant human UGT2B15 supersomes.
The reaction was initiated by addition of 10 µL 5 mM UDPGA (to 100 µL total volume) followed by incubation for 120 min at 37 °C in a shaking water bath. Reactions were stopped by addition of 50 µL of ice-cold acetonitrile containing chlorpropamide (300 ng/mL) as an internal standard, and they were chilled and centrifuged (13,000 g, 15 min, 4 °C). An aliquot of 5 μL of supernatant was injected into an LC-MS/MS system. Additionally, identical parallel incubation samples containing a known UGT2B15 inhibitor amitriptyine (0–200 μM) was included as a positive control for UGT2B15.
as §1

UGT2B7 = target: T6, UGT2B7 (Homo sapiens, UniProt P16662); experiment: Inhibition of UGT2B7 (zidovudine-5′-glucuronidation) in human liver microsomes
T6 sequence (P16662 24-529): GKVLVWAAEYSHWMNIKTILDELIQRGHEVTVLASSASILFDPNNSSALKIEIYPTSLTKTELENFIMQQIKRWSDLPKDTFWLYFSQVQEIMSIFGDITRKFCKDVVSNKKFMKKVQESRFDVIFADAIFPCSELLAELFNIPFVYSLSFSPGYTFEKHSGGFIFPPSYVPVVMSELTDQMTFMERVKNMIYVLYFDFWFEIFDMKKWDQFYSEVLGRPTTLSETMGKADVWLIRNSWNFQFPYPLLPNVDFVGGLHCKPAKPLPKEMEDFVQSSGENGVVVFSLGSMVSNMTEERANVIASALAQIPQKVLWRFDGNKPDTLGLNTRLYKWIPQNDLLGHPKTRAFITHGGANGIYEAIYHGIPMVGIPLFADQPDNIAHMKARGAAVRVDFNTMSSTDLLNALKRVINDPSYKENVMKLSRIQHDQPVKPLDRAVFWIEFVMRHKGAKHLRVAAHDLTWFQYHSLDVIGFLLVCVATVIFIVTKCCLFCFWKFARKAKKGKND
Protocol: as §2, §3, §4, §5

IC50 (UGT1A3): 5.17 ± 0.7 µM
SMILES: COc1cc2c(c(OC)c1OC)-c1c(cc(OC)c(OC)c1OC)C[C@H](C)[C@H](C)C2 [Deoxyschizandrin, deoxyschizandrin]

IC50 (UGT1A9): 0.39 ± 0.0256 µM
SMILES: O=C(O)c1cccnc1Nc1cccc(C(F)(F)F)c1 [Niflumic acid, niflumic acid, reference compound]

Mode of inhibition of UGT1A1 (UGT1A1): competitive inhibition
SMILES: Cc1cn(-c2cc(NC(=O)c3ccc(C)c(Nc4nccc(-c5cccnc5)n4)c3)cc(C(F)(F)F)c2)cn1 [Nilotinib, nilotinib, reference compound]

SMILES: C[C@@H]1CC[C@@]2(OC1)O[C@H]1C[C@H]3[C@@H]4CC[C@H]5C[C@@H](O)CC[C@]5(C)[C@H]4CC(=O)[C@]3(C)[C@H]1[C@@H]2C [Hecogenin, hecogenin, reference compound]
IC50 (UGT1A4): 8.07 ± 2.6 µM

IC50 (UGT2B15): 69.4 ± 10.6 µM
SMILES: CN(C)CCC=C1c2ccccc2CCc2ccccc21 [Amitriptyline, amitriptyline, reference compound]

IC50 (UGT2B7): 37.8 ± 2.37 µM
SMILES: O=C1Nc2ccc(Cl)cc2[C@@](C#CC2CC2)(C(F)(F)F)O1 [Efavirenz, efavirenz, reference compound]
